US10233173B2, “Substituted 1,2,3-triazoles as NR2B-selective NMDA modulators” (JANSSEN PHARMACEUTICA NV, priority 2016, dated 2019)

Molecular target: human GluN1/GluN2B NMDA receptors (Homo sapiens, UniProt Q05586+Q13224)
Assay: Cell-based calcium flux (FLIPR) assay on cloned human NR1/NR2B ion channels expressed in mammalian cells
Settings: standard assay; glutamate at ~EC80; FLIPR calcium flux
Method in brief: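 Calcium influx followed by FLIPR fluorescence after 5 min compound exposure and a further 5 min co-agonist challenge: 10 μM glycine with glutamate at ~EC80 (standard) or EC40 (HTS).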

human GluN1/GluN2B NMDA receptors, sequence (Q13224 27-1484, other chains not shown): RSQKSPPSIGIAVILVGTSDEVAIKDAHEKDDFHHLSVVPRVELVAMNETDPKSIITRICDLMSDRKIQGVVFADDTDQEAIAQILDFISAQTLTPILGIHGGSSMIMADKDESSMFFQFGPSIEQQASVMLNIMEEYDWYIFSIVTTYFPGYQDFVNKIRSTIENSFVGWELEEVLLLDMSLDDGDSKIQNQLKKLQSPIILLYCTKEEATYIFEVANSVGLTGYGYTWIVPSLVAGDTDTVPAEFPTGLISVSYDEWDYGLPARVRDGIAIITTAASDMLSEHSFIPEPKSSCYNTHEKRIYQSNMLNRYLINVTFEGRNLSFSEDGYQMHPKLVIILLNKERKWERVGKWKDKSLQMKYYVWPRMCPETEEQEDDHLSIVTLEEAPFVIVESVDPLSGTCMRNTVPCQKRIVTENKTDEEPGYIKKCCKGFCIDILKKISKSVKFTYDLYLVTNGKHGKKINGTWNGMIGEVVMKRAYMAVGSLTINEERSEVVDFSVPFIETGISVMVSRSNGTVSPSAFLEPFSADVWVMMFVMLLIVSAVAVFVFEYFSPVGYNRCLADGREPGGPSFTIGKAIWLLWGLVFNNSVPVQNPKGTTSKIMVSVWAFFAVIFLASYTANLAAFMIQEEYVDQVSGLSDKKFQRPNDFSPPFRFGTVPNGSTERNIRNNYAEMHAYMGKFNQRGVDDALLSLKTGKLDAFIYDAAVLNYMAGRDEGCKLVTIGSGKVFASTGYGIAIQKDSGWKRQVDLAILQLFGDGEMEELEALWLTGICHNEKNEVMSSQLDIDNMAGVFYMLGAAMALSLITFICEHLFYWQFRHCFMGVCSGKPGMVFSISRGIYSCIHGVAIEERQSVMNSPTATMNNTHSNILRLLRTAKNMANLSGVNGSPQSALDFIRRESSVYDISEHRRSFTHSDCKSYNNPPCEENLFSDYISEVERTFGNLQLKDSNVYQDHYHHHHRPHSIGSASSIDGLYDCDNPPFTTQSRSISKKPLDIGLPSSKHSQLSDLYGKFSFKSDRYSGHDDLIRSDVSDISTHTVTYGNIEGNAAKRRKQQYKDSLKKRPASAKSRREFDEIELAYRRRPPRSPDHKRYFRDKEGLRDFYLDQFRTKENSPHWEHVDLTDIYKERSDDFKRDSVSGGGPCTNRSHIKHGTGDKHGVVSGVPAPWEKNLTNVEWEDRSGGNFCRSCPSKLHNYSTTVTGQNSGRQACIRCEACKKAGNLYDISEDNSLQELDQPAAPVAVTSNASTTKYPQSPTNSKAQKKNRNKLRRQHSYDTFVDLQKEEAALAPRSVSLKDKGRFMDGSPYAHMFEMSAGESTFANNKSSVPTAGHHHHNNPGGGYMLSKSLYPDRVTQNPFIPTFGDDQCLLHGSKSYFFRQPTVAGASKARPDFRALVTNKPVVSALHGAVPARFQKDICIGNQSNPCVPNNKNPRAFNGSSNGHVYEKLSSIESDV

| Compound | IC50 |
| --- | --- |
| CC(C)(O)c1cnc(OCc2cn(-c3ccc(F)c(C(C)(F)F)c3)nn2)nc1 [Example 566, 2-[2-[[1-[3-(1,1-Difluoroethyl)-4-fluoro-phenyl]triazol-4-yl]methoxy]pyrimidin-5-yl]propan-2-ol] | 0.008 µM |
| Cc1cnc(OCc2cn(-c3ccc(F)c(C(C)(F)F)c3)nn2)nc1C [Example 573, 2-[[1-[3-(1,1-Difluoroethyl)-4-fluoro-phenyl]triazol-4-yl]methoxy]-4,5-dimethyl-pyrimidine] | 0.019 µM |
| CNc1nc(OCc2cn(-c3ccc(F)c(OC(F)F)c3)nn2)ncc1C [Example 515, 2-[[1-[3-(Difluoromethoxy)-4-fluoro-phenyl]triazol-4-yl]methoxy]-N,5-dimethyl-pyrimidin-4-amine] | 0.099 µM |
| Fc1ccc(-n2cc(COc3nccc(-c4ccc[nH]4)n3)nn2)cc1OC(F)F [Example 681, 2-((1-(3-(Difluoromethoxy)-4-fluorophenyl)-1H-1,2,3-triazol-4-yl)methoxy)-4-(1H-pyrrol-2-yl)pyrimidine] | 0.681 µM |
| Fc1ccc(-n2cc(COc3ccc(Cl)cn3)nn2)cc1C(F)(F)F [Example 428, 5-Chloro-2-[[1-[4-fluoro-3-(trifluoromethyl)phenyl]triazol-4-yl]methoxy]pyridine] | 0.796 µM |
| Cc1ccnc(OCc2cn(-c3ccc(F)c(C(C)(F)F)c3)nn2)c1 [Example 557, 2-[[1-[3-(1,1-Difluoroethyl)-4-fluoro-phenyl]triazol-4-yl]methoxy]-4-methyl-pyridine] | 0.246 µM |
| Cc1cc(F)ccc1-n1cc(COc2ncc(F)cn2)nn1 [Example 487, 5-Fluoro-2-[[1-(4-fluoro-2-methyl-phenyl)triazol-4-yl]methoxy]pyrimidine] | 16.2 µM |
| CC(F)(F)c1ccnc(OCc2cn(-c3ccc(F)c(C(F)F)c3)nn2)n1 [Example 696, 4(1,1-Difluoroethyl)-2-((1-(3-(difluoromethyl)-4-fluorophenyl)-1H-1,2,3-triazol-4-yl)methoxy)pyrimidine] | 0.958 µM |
| CCc1ccnc(OCc2cn(-c3ccc(F)c(OC(F)F)c3)nn2)n1 [Example 495, 2-f[[1-[3-(Difluoromethoxy)-4-fluoro-phenyl]triazol-4-yl]methoxy]-4-ethyl-pyrimidine] | 0.01 µM |
| CC(O)(c1cnc(OCc2cn(-c3ccc(F)c(C(F)(F)F)c3)nn2)nc1)C(F)(F)F (racemic) [Example 441, (R/S)-1,1,1-Trifluoro-2-[2-[[1-[4-fluoro-3-(trifluoromethyl)phenyl]triazol-4-yl]methoxy]pyrimidin-5-yl]propan-2-ol] | 0.412 µM |
| COc1cnc(OCc2cn(-c3ccc(F)c(F)c3)nn2)nc1 [Example 599, 2-[[1-(3,4-Difluorophenyl)triazol-4-yl]methoxy]-5-methoxy-pyrimidine] | 0.034 µM |
| Cc1cccc(-n2cc(COc3ncc(OC(F)F)cn3)nn2)c1F [Example 471, 5-(Difluoromethoxy)-2-[[1-(2-fluoro-3-methyl-phenyl)triazol-4-yl]methoxy]pyrimidine] | 1.73 µM |
| Fc1ccc(-n2cc(COc3ncc(C4CC4)cn3)nn2)cc1C(F)(F)F [Example 453, 5-Cyclopropyl-2-[[1-[4-fluoro-3-(trifluoromethyl)phenyl]triazol-4-yl]methoxy]pyrimidine] | 0.022 µM |
| Cc1cccc(-n2cc(COc3ncc(Cl)c(C)n3)nn2)c1F [Example 470, 5-Chloro-2-[[1-(2-fluoro-3-methyl-phenyl)triazol-4-yl]methoxy]-4-methyl-pyrimidine] | 0.659 µM |
| FC(F)Oc1cc(-n2cc(COc3ncc(N4CC(F)(F)C4)cn3)nn2)ccc1Cl [Example 393, 2-((1-(4-Chloro-3-(difluoromethoxy)phenyl)-1H-1,2,3-triazol-4-yl)methoxy)-5-(3,3-difluoroazetidin-1-yl)pyrimidine] | 0.037 µM |
| OCc1ccnc(OCc2cn(-c3ccc(Cl)c(C(F)F)c3)nn2)n1 [Example 625, [2-[[1-[4-Chloro-3-(difluoromethyl)phenyl]triazol-4-yl]methoxy]pyrimidin-4-yl]methanol] | 0.017 µM |
| CCc1cnc(OCc2cn(-c3ccnc(C(F)(F)F)c3)nn2)nc1 [Example 667, 5-Ethyl-2-[[1-[2-(trifluoromethyl)-4-pyridyl]triazol-4-yl]methoxy]pyrimidine] | 0.184 µM |
| CC(F)(F)c1cc(-n2cc(COc3ncccc3F)nn2)ccc1F [Example 555, 2-[[1-[3-(1,1-Difluoroethyl)-4-fluoro-phenyl]triazol-4-yl]methoxy]-3-fluoro-pyridine] | 0.265 µM |

Same assay, conditions: standard assay; human GluN1/GluN2B, calcium flux (FLIPR), glutamate ~EC80

| Compound | IC50 |
| --- | --- |
| CCc1cnc(OCc2cn(-c3ccc(Cl)c(C(F)F)c3)nn2)nc1 [Example 32, 2-[[1-[4-Chloro-3-(difluoromethyl)phenyl]triazol-4-yl]methoxy]-5-ethyl-pyrimidine] | 0.002 µM |
| CC(C)c1cnc(OCc2cn(-c3ccc(Cl)c(OC(F)F)c3)nn2)nc1 [Example 373, 2-[[1-[4-Chloro-3-(difluoromethoxy)phenyl]triazol-4-yl]methoxy]-5-isopropyl-pyrimidine] | 0.01 µM |
| Cc1nc(OCc2cn(-c3cccc(C(C)(F)F)c3)nn2)ncc1F [Example 313, 2-[[1-[3-(1,1-Difluoroethyl)phenyl]triazol-4-yl]methoxy]-5-fluoro-4-methyl-pyrimidine] | 0.005 µM |
| FC(F)c1cc(-n2cc(COc3ncc(C(F)(F)F)cn3)nn2)ccc1Cl [Example 45, 2-[[1-[4-Chloro-3-(difluoromethyl)phenyl]triazol-4-yl]methoxy]-5-(trifluoromethyl)pyrimidine] | 0.004 µM |
| Cc1ccnc(OCc2cn(-c3ccc(F)c(Br)c3)nn2)n1 [Example 17, 2-[[1-(3-Bromo-4-fluoro-phenyl)triazol-4-yl]methoxy]-4-methylpyrimidine] | 0.01 µM |
| CCc1cnc(OCc2cn(-c3ccc(F)c(C(C)(F)F)c3)nn2)nc1 [Example 67, 2-[[1-[3-(1,1-Difluoroethyl)-4-fluoro-phenyl]triazol-4-yl]methoxy]-5-ethyl-pyrimidine] | 0.015 µM |
| CN(C)c1ccnc(OCc2cn(-c3cccc(C(F)F)c3)nn2)n1 [Example 277, 2-[[1-[3-(Difluoromethyl)phenyl]triazol-4-yl]methoxy]-N,N-dimethyl-pyrimidin-4-amine] | 0.041 µM |
| COc1cnc(OCc2cn(-c3cccc(C(C)(F)F)c3)nn2)nc1 [Example 306, 2-[[1-[3-(1,1-Difluoroethyl)phenyl]triazol-4-yl]methoxy]-5-methoxy-pyrimidine] | 0.003 µM |
| Cn1ccc(-c2cnc(OCc3cn(-c4ccc(F)c(C(C)(F)F)c4)nn3)nc2)n1 [Example 184, 2-[[1-[3-(1,1-Difluoroethyl)-4-fluoro-phenyl]triazol-4-yl]methoxy]-5-(1-methylpyrazol-3-yl)pyrimidine] | 0.309 µM |
| Cc1nc(OCc2cn(-c3cccc(C(F)F)c3)nn2)ncc1Cl [Example 279, 5-Chloro-2-[[1-[3-(difluoromethyl)phenyl]triazol-4-yl]methoxy]-4-methyl-pyrimidine] | 0.003 µM |
| FC(F)Oc1cc(-n2cc(COc3ccncn3)nn2)ccc1Cl [Example 13, 4-[[1-[4-Chloro-3-(difluoromethoxy)phenyl]triazol-4-yl]methoxy]pyrimidine] | 0.879 µM |
| Cc1cnc(OCc2cn(-c3cccc(F)c3)nn2)nc1 [Example 232, 2-[[1-(3-Fluorophenyl)triazol-4-yl]methoxy]-5-methyl-pyrimidine] | 0.205 µM |
| Fc1ccc(-n2cc(COc3nccc(N4CCCCC4)n3)nn2)cc1OC(F)F [Example 169, 2-[[1-[3-(Difluoromethoxy)-4-fluoro-phenyl]triazol-4-yl]methoxy]-4-(1-piperidyl)pyrimidine] | 0.031 µM |
| Cc1cccc(-n2cc(COc3nccc(C)n3)nn2)c1 [Example 244, 4-Methyl-2-[[1-(m-tolyl)triazol-4-yl]methoxy]pyrimidine] | 0.191 µM |
| CC(C)(O)c1cnc(OCc2cn(-c3ccc(F)c(C4CC4)c3)nn2)nc1 [Example 180, 2-[2-[[1-(3-Cyclopropyl-4-fluoro-phenyl)triazol-4-yl]methoxy]pyrimidin-5-yl]propan-2-ol] | 0.133 µM |
| Fc1ccc(-n2cc(CNc3ncccn3)nn2)cc1OC(F)F [Example 36, N-[[1-[3-(Difluoromethoxy)-4-fluoro-phenyl]triazol-4-yl]methyl]pyrimidin-2-amine] | 0.351 µM |
| Cc1cc(C)nc(OCc2cn(-c3ccc(F)c(Br)c3)nn2)n1 [Example 18, 2-[[1-(3-Bromo-4-fluoro-phenyl)triazol-4-yl]methoxy]-4,6-dimethyl-pyrimidine] | 0.082 µM |
| Cc1cnc(OCc2cn(-c3ccc(Cl)c(OC(F)F)c3)nn2)nc1C [Example 372, 2-[[1-[4-Chloro-3-(difluoromethoxy)phenyl]triazol-4-yl]methoxy]-4,5-dimethyl-pyrimidine] | 0.008 µM |
| Fc1ccc(-n2cc(COc3ncc(Cl)cn3)nn2)cc1OC(F)F [Example 61, 5-Chloro-2-[[1-[3-(difluoromethoxy)-4-fluoro-phenyl]triazol-4-yl]methoxy]pyrimidine] | 0.003 µM |
| Cc1cc(C)cc(-n2cc(COc3ncc(F)cn3)nn2)c1 [Example 361, 2-[[1-(3,5-Dimethylphenyl)triazol-4-yl]methoxy]-5-fluoro-pyrimidine] | 0.587 µM |
| Fc1cccnc1OCc1cn(-c2ccc(Cl)c(OC(F)F)c2)nn1 [Example 107, 2-[[1-[4-Chloro-3-(difluoromethoxy)phenyl]triazol-4-yl]methoxy]-3-fluoro-pyridine] | 0.119 µM |
| CC(N)c1ccnc(OCc2cn(-c3ccc(F)c(OC(F)F)c3)nn2)n1 (racemic) [Example 163, (R/S) 1-[2-[[1-[3-(Difluoromethoxy)-4-fluoro-phenyl]triazol-4-yl]methoxy]pyrimidin-4-yl]ethanamine] | 1.4 µM |
| Cc1cnc(OCc2cn(-c3cccc(C(F)F)c3)nn2)nc1C [Example 155, 2-[[1-[3-(Difluoromethyl)phenyl]triazol-4-yl]methoxy]-4,5-dimethyl-pyrimidine] | 0.006 µM |
